Where two headings read alike, the source gives them in different places.
Legend:
CEM-SS cells = assay: CEM-SS MTT assay, cytotoxicity (Table I); type: cell-based, human
HIV-1 = settings: for EC50 / Maximum Protection (%): CEM-SS MTT assay; for protecting cells against HIV infection: text summary of Table I
[1] = tested on: human foreskin fibroblast cells; assay: Toxicity run with the HCMV assay, human foreskin fibroblast cells; type: cell-based; settings: Table II
Description: [table] […] The media from the wells is then aspirated and 2 mL of each drug concentration is then added to each well. The cells are then incubated in a CO2 incubator at 37° C. for 72 h. At the end of this time, the media-drug solution is removed and the cells washed. […] The cell-media mixture is then pipetted up and down vigorously to break up the cell suspension, and 0.2 mL of the mixture is added to 9.8 mL of Isoton III and counted using a Coulter Counter. Each sample is counted three times with three replicate wells per sample. The procedure for plating cells and adding drug is the same as for the MTT Assay. After drug addition, the plates are incubated for seven days in a CO2 incubator at 37° C. […] This is incubated in the CO2 incubator for one hour. The dye is aspirated and the cells are washed using a Nunc Plate Washer. […] The plates are rotated for 15 minutes and the optical densities are read at 550 nm on a plate reader.

2.2.15 cells = assay: Toxicity in 2.2.15 cells, neutral red dye uptake; type: cell-based, human; settings: Table II; read-out: HBV IC50
Description: Cells of 2.2.15 were grown to confluence in 96-well flat-bottomed tissue culture plates and treated with compounds (in 0.2 mL culture medium/well) as described above. Four concentrations of each compound were assayed, each in triplicate cultures, in 3- to 10-fold steps. Untreated control cultures were maintained on each 96-well plate. On each 96-well plate, wells containing no cells were used to correct for light scattering.

HBV = HBV replication in cultures of 2.2.15 cells, extracellular HBV virion DNA (primary assay); settings: read-out: HBV EC50; Table II
HCMV = HCMV semi-automated CPE-inhibition assay in human foreskin fibroblast cells; type: cell-based, human cytomegalovirus; settings: Table II
[2] = tested on: HCMV isolates Towne, AD169, E. Mann, Coffman, C9208; assay: Anti-CMV plaque reduction assay against various laboratory and clinical isolates (Example 40); type: cell-based, human cytomegalovirus
Description: On the date of assay, the drug is made up at twice the desired concentration in 2x MEM and then serially diluted 1:5 in 2x MEM using six concentrations of drug. The initial starting concentration is usually 200 gg/mL down to 0.06 μg/mL. […] The media is then aspirated from the wells and 0.2 mL of virus is added to each well in duplicate with 0.2 mL of media being added to drug toxicity wells. The plates are then incubated for one hour with shaking every fifteen minutes. […] This will give final drug concentrations beginning with 100 μg/mL and ending with 0.03 μg/mL and a final agarose overlay concentration of 0.5%. The drug agarose mixture is applied to each well in 2 mL volume and the plates then incubated for three days, after which the cells were stained with a 1.5% solution of neutral red. At the end of 4-6hr incubation period, the stain is aspirated, and plaques counted using a stereomicroscope at lOx magnification. The procedure again is nearly the same as for HSV with a few minor changes. […] The assay is incubated for 14 days with the additional 1 mL overlays being applied on days four and eight. The procedure for the liquid overlay plaque assay is similar to that using the agarose overlay. The procedure for adding the virus is the same as for the regular plaque assay. The drugs are made up in a concentration to be used in MEM with 2% FBS. The drugs are not made up at 2x concentration as in the previous assays but are made up at the desired concentration. For HSV-1 and HSV-2 assays, an antibody preparation obtained from Baxter Health Care Corporation is diluted 1:500 and added to the media that the drug is diluted in. For CMV and VZV, no antibody in the overlay is utilized. For the CMV assay, additional medium without new drug is added on day five and allowed to incubate for a total of 10 days. For VZV, additional medium is added on day five and incubated for a total of 10 days. At the end of the incubation period for all of the assays, 2 mL of 1:10 dilution of stock neutral is added to each well incubated for six hours. The liquid is then aspirated off and plaques enumerated using a stereomicroscope. Five calanolide analogues, prepared as described above, were further evaluated for their anti-HCMV activity in plaque reduction assay against various laboratory and clinical isolates (Towne, AD 169, E. Mann, Coffinan, and […]).

Structure (SMILES)	IC50 (CEM-SS cells)	EC50 (HIV-1)	Maximum Protection (%) (HIV-1)	protecting cells against HIV infection (HIV-1)	other results
CCCc1cc(=O)oc2c(C(=O)C(C)C(C)(C)O)c(O)c3c(c12)OC(C)(C)C=C3 (racemic) [(±)-14b, (±)-6.6-Dimethyl-10-(2,3-dimethyl-3-hydroxybutyro)-9-hydroxy4-propyl-2H,6H-benzo[1,2-b:3,4-b′]dipyran-2-one]	27.1 µM	–	–	–	–
CCCc1cc(=O)oc2c3c(c4c(c12)OC(C)(C)C=C4)OC(CC)C(C)C3O (racemic) [(±)-16h, (±)-10,11,12-cis-10,11-dihydro10-ethyl-12-hydroxy4-propyl-6,6,11-trimethyl-2H,6H,12H-benzo [1,2-b:3,4-b′:5,6-b″]tripyran-2-one]	20.9 µM	–	–	–	–
CCCc1cc(=O)oc2c3c(c4c(c12)OC(C)(C)C=C4)OC(C)C(C)(C)C3O (racemic) [(±)-16b, (±)-10,12-trans-10,11-dihydro-12-hydroxy-6,6,10,11,11-pentamethyl-4-propyl-2H,6H,12H-benzo [1,2-b:3,4-b′:5,6-b″]tripyran-2-one]	16.9 µM	2.36 µM	78%	highly efficacious	–
CCCc1cc(=O)oc2c3c(c4c(c12)OC(C)(C)C=C4)OC(CC)C(C)C3O (racemic) [(±)-16e, (±)-10,11-trans-11,12-cis-10,11-Dihydro-10-ethyl-12-hydroxy-4-propyl-6,6,11-trimethyl-2H,6H,12H-benzo [1,2-b:3,4-b′:5,6-b″]tripyran-2-one]	14 µM	1.67 µM	88%	highly efficacious	–
CCCc1cc(=O)oc2c3c(c4c(c12)OC(C)(C)C=C4)OC(C)C(C)C3=O (single isomer, unassigned; (-)) [(−)-7a]	–	–	–	–	HCMV IC50 [1]: 11.9 µg/mL; IC50 (2.2.15 cells): 86 µM; EC50 (HBV): > 10 µM; HCMV EC50 (HCMV): >4.0 µg/mL
CCCc1cc(=O)oc2c3c(c4c(c12)OC(C)(C)C=C4)OC(CC)C(C)C3O (racemic) [(±)-16g, (±)-10,11-cis-11,12-trans-10,11-Dihydro-10-ethyl-12-hydroxy-4-propyl-6,6,11-trimethyl-2H,6H,12H-benzo [1,2-b:3,4-b′:5,6-b″]tripyran-2-one]	11.6 µM	–	–	–	–
CCCc1cc(=O)oc2c(C(=O)[C@H](C)[C@@H](C)OC(C)=O)c(O)c3c(c12)OC(C)(C)C=C3 [(+)-10, 6,6Dimethyl-9-hydroxy-10-[2(R)-methyl-3(R)-acetoxybutyro]-4-propyl-2H,6H-benzo-[1,2-b:3,4-b′]dipyran-2-one]	9.27 µM	0.89 µM	88%	highly efficacious	–
CCCc1cc(=O)oc2c3c(c4c(c12)OC(C)(C)C=C4)OC(C)C(C)C3=O (racemic) [(±)-7, 10,11-trans-dihydro-4-propyl-6,6,10,11-tetramethyl-2H,6H,12H-benzo[1,2-b:3,4-b′:5,6-b″]-tripyran-2,12-dione]	19.1 µM	1.18 µM	90%	highly efficacious	EC50 ([2]; isolate AD169): 3.16 µM; EC50 ([2]; isolate C9208): 7.16 µM; EC50 ([2]; isolate Coffman): 3.34 µM; EC50 ([2]; isolate E. Mann): 3.16 µM; EC50 ([2]; isolate Towne): 3.34 µM
CCCc1cc(=O)oc2c3c(c4c(c12)OC(C)(C)C=C4)O[C@@H](C)C(C)=C3 [Compound 22, 10(S)4-propyl-6,6,10,11-tetramethyl-2H,6H,10H-benzo [1,2-b:3,4-b′:5,6-b″]tripyran-2-one]	–	–	–	–	IC50 (CEM-SS cells; Homo sapiens): 24.7 µM
CCCc1cc(=O)oc2c3c(c4c(c12)OC(C)(C)C=C4)OC(C)(C)C(C)C3O (racemic) [(±)-16c, (±)-11,12-cis-10,11-Dihydro-12-hydroxy-6,6,10,10,11-pentamethyl-4-propyl-2H, 6H, 12H-benzo [1,2-b:3,4-b′:5,6-b″]tripyran-2-one]	21.3 µM	–	–	–	–
CCCc1cc(=O)oc2c3c(c4c(c12)OC(C)(C)C=C4)OC(C)C(C)(C)C3O (racemic) [(±)-16a, (±)-10,12-cis-10,11-Dihydro-12-hydroxy-6,6,10,11,11-pentamethyl-4propyl-2H, 6H, 12H-benzo [1,2-b:3,4-b′:5,6-b″]tripyran-2-one]	20.3 µM	–	–	–	–
CCCc1cc(=O)oc2c3c(c4c(c12)OC(C)(C)C=C4)O[C@H](C)[C@@H](C)C3=NO (racemic) [(±)-19a, (±)10,11-trans-10,11-Dihydro4-propyl-6,6,10,11-tetramethyl-2H, 6H, 12H-benzo [1,2-b:3,4-b′:5,6-b″]tripyran-2,12-dione-12-oxime]	15.8 µM	–	–	–	–
CCCc1cc(=O)oc2c3c(c4c(c12)OC(C)(C)C=C4)OC(C)(C)C(C)C3O (racemic) [(±)-16d, (±)-11,12-trans-10,11-dihydro-12-hydroxy-6,6,10,10,11-pentamethyl-4-propyl-2H,6H,12H-benzo [1,2-b:3,4-b′:5,6-b″]tripyran-2-one]	21 µM	5.66 µM	88%	highly efficacious	–
CCCc1cc(=O)oc2c(C(=O)C(C)(C)C(C)O)c(O)c3c(c12)OC(C)(C)C=C3 (racemic) [(±)-14a, (±)-6,6-Dimethyl-10-(2,2-dimethyl-3-hydroxybutyro)-9-hydroxy-4-propyl-2H,6H-benzo[1,2-b:3,4-b′]dipyran-2-one]	37 µM	–	–	–	–
CCCc1cc(=O)oc2c3c(c4c(c12)OC(C)(C)C=C4)OC(C)C(C)C3=NOC (racemic) [(±)-19b, (±)-10,11-trans-10,11 -Dihydro4-propyl-6,6,10,11-tetramethyl-2H, 6H, 12H-benzo [1,2-b:3,4-b′:5,6-b ″]tripyran-2,12-dione-12-methoxime]	> 100 µM	> 100 µM	–	–	–
CCCc1cc(=O)oc2c3c(c4c(c12)OC(C)(C)C=C4)OC(CC)C(C)C3O (racemic) [(±)-16f, (±)-10,11-qrans-11,12-trans-10,11-dihydro-10-ethyl-12-hydroxy4-propyl-6,6,11-trimethyl-2H,6H,12H-benzo [1,2-b:3,4-b′:5,6-b″]tripyran-2-one]	17.7 µM	1.97 µM	86%	highly efficacious	–

Reference: patent US20020013478A1, “Calanolide analogues and methods of their use” (Sarawak Medichem Pharmaceuticals,Inc., priority 1994, published 2002)
